Laboratory results taken from patent US11453683B1, “KRas G12D inhibitors” (Mirati Therapeutics, Inc., priority 2019, dated 2022).
Where a name gives a salt, the structure may show the parent alone.

Test system: KRas G12D-mediated phosphorylation of ERK
Test: Inhibition of KRas G12D-mediated phosphorylation of ERK in AGS cells
Format: cell-based
Settings: Homo sapiens; AGS cells expressing G12D, 3 hours, phospho-ERK normalized to GAPDH
In short: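 Fixed, methanol-permeabilized; phospho-ERK (Thr202/Tyr204) by in-cell immunofluorescence normalized to GAPDH. Percent of DMSO control, IC50 by 4-parameter fit.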

Row | SMILES | IC50
1 | O[C@H]1CN2CCC[C@@]2(COc2nc(N3CC4CCC(C3)N4)c3cnc(-c4cccc5cccc(Cl)c45)c(F)c3n2)C1 [Example 223, 7a-(((4-((1R,5S)-3,8-diazabicyclo[3.2.1]octan-3-yl)-7-(8-chloronaphthalen-1-yl)-8-fluoropyrido[4,3-d]pyrimidin-2-yl)oxy)methyl)hexahydro-1H-pyrrolizin-2-ol bis-2,2,2-trifluoroacetate] | 4.27 µM
2 | Oc1cc(-c2ncc3c(N4C[C@H]5CC[C@@H](C4)N5)nc(OC[C@@H]4CC5CCN4C5)nc3c2F)c2ccccc2c1 [Example 40, 4-(2-(((2S)-1-azabicyclo[2.2.1]heptan-2-yl)methoxy)-4-((1R,5S)-3,8-diazabicyclo[3.2.1]octan-3-yl)-8-fluoropyrido[4,3-d]pyrimidin-7-yl)naphthalen-2-ol] | 4.24 µM
3 | CNC(=O)O[C@@H]1CN2CCC[C@]2(COc2nc(N3C[C@H]4CC[C@@H](C3)N4)c3cnc(-c4cccc5cccc(Cl)c45)c(F)c3n2)C1 [Example 435, (2S,7aR)-7a-(((4-((1R,5S)-3,8-diazabicyclo[3.2.1]octan-3-yl)-7-(8-chloronaphthalen-1-yl)-8-fluoropyrido[4,3-d]pyrimidin-2-yl)oxy)methyl)hexahydro-1H-pyrrolizin-2-yl methylcarbamate] | 1.82 µM
4 | Cc1cccc(CCOc2nc(N3C[C@H]4CC[C@@H](C3)N4)c3cnc(-c4cc(O)cc5ccccc45)c(F)c3n2)n1 [Example 87, 4-(4-((1R,5S)-3,8-diazabicyclo[3.2.1]octan-3-yl)-8-fluoro-2-(2-(6-methylpyridin-2-yl)ethoxy)pyrido[4,3-d]pyrimidin-7-yl)naphthalen-2-ol] | 10.6 µM
5 | C#Cc1cccc2cccc(-c3ncc4c(N5C[C@H]6CC[C@@H](C5)N6)nc(OC[C@@H]5CCCN5C)nc4c3F)c12 [Example 206, 4-((1R,5S)-3,8-diazabicyclo[3.2.1]octan-3-yl)-7-(8-ethynylnaphthalen-1-yl)-8-fluoro-2-(((S)-1-methylpyrrolidin-2-yl)methoxy)pyrido[4,3-d]pyrimidine] | 0.9 µM
6 | C#Cc1c(F)ccc2cccc(-c3ncc4c(N5C[C@H]6CC[C@@H](C5)N6)nc(OC[C@]56CCCN5[C@@H](COC(=O)N(C)C)CC6)nc4c3F)c12 [Example 439, ((3R,7aR)-7a-(((4-((1R,5S)-3,8-diazabicyclo[3.2.1]octan-3-yl)-7-(8-ethynyl-7-fluoronaphthalen-1-yl)-8-fluoropyrido[4,3-d]pyrimidin-2-yl)oxy)methyl)hexahydro-1H-pyrrolizin-3-yl)methyl dimethylcarbamate] | 0.0128 µM
7 | Nc1nccn1CCOc1nc(N2CC3CCC(C2)N3)c2cnc(-c3cccc4cccc(Cl)c34)c(F)c2n1 [Example 178, 1-[2-[7-(8-chloro-1-naphthyl)-4-(3,8-diazabicyclo[3.2.1]octan-3-yl)-8-fluoro-pyrido[4,3-d]pyrimidin-2-yl]oxyethyl]imidazol-2-amine] | > 16.7 µM
8 | CC(C)c1c(F)cccc1-c1ncc2c(N3C[C@H]4CC[C@@H](C3)N4)nc(OCC34CCCN3CCC4)nc2c1F [Example 299, 4-((1R,5S)-3,8-diazabicyclo[3.2.1]octan-3-yl)-8-fluoro-7-(3-fluoro-2-isopropylphenyl)-2-((hexahydro-1H-pyrrolizin-7a-yl)methoxy)pyrido[4,3-d]pyrimidine] | > 5.56 µM
9 | CC#Cc1cccc2cccc(-c3ncc4c(N5C[C@H]6CC[C@@H](C5)N6)nc(OCC56CCCN5CCC6)nc4c3F)c12 [Example 195, 4-((1R,5S)-3,8-diazabicyclo[3.2.1]octan-3-yl)-8-fluoro-7-(8-(prop-1-yn-1-yl)naphthalen-1-yl)-2-((tetrahydro-1H-pyrrolizin-7a(5H)-yl)methoxy)pyrido[4,3-d]pyrimidine] | 2.46 µM
10 | O=C(OC[C@H]1CC[C@@]2(COc3nc(N4CC5CCC(C4)N5)c4cnc(-c5cccc6cccc(Cl)c56)c(F)c4n3)CCCN12)N1CCCC1 [Example 443, ((3R,7aR)-7a-(((4-(3,8-diazabicyclo[3.2.1]octan-3-yl)-7-(8-chloronaphthalen-1-yl)-8-fluoropyrido[4,3-d]pyrimidin-2-yl)oxy)methyl)hexahydro-1H-pyrrolizin-3-yl)methyl pyrrolidine-1-carboxylate] | 0.16 µM
11 | O[C@H]1CN2CCC[C@]2(COc2nc(N3CC4CCC(C3)N4)c3cnc(-c4cccc5cccc(Cl)c45)c(F)c3n2)C1 (stereo in doubt) [Example 224, 7a-(((4-((1R,5S)-3,8-diazabicyclo[3.2.1]octan-3-yl)-7-(8-chloronaphthalen-1-yl)-8-fluoropyrido[4,3-d]pyrimidin-2-yl)oxy)methyl)hexahydro-1H-pyrrolizin-2-ol bis-hydrochloride] | 6.38 µM
12 | CC1CCCc2cccc(-c3ncc4c(N5CC6CCC(C5)N6)nc(OC[C@@H]5CCCN5C)nc4c3F)c21 (stereo partly drawn) [Example 133, 4-((1R,5S)-3,8-diazabicyclo[3.2.1]octan-3-yl)-8-fluoro-7-(8-methyl-5,6,7,8-tetrahydronaphthalen-1-yl)-2-(((S)-1-methylpyrrolidin-2-yl)methoxy)pyrido[4,3-d]pyrimidine] | 2.05 µM
13 | FCCCc1cccc2cccc(-c3ncc4c(N5C[C@H]6CC[C@@H](C5)N6)nc(OCC56CCCN5CCC6)nc4c3F)c12 [Example 255, 4-((1R,5S)-3,8-diazabicyclo[3.2.1]octan-3-yl)-8-fluoro-7-(8-(3-fluoropropyl)naphthalen-1-yl)-2-((hexahydro-1H-pyrrolizin-7a-yl)methoxy)pyrido[4,3-d]pyrimidine] | 0.673 µM
14 | CC1CCc2cccc(-c3ncc4c(N5CC6CCC(C5)N6)nc(OC[C@@H]5CCCN5C)nc4c3F)c21 (stereo partly drawn) [Example 174, 4-((1R,5S)-3,8-diazabicyclo[3.2.1]octan-3-yl)-8-fluoro-7-(3-methyl-2,3-dihydro-1H-inden-4-yl)-2-(((S)-1-methylpyrrolidin-2-yl)methoxy)pyrido[4,3-d]pyrimidine] | 12.8 µM
15 | Oc1cc(-c2ncc3c(N4C[C@H]5CC[C@@H](C4)N5)nc(N4CC5(CCOC5)C4)nc3c2F)c2ccccc2c1 [Example 76, 4-(4-((1R,5S)-3,8-diazabicyclo[3.2.1]octan-3-yl)-8-fluoro-2-(6-oxa-2-azaspiro[3.4]octan-2-yl)pyrido[4,3-d]pyrimidin-7-yl)naphthalen-2-ol] | 7.41 µM
16 | CCc1ccc(O)cc1-c1ncc2c(N3C[C@H]4CC[C@@H](C3)N4)nc(OCC34CCCN3CCC4)nc2c1F [Example 263, 3-(4-((1R,5S)-3,8-diazabicyclo[3.2.1]octan-3-yl)-8-fluoro-2-((hexahydro-1H-pyrrolizin-7a-yl)methoxy)pyrido[4,3-d]pyrimidin-7-yl)-4-ethylphenol] | 7.64 µM
17 | CN1CCC[C@H]1COc1nc(N2CC3CCC(C)(C2)N3)c2cnc(-c3cc(O)cc4ccccc34)c(F)c2n1 (stereo partly drawn) [Example 156, 4-(8-fluoro-4-(1-methyl-3,8-diazabicyclo[3.2.1]octan-3-yl)-2-(((S)-1-methylpyrrolidin-2-yl)methoxy)pyrido[4,3-d]pyrimidin-7-yl)naphthalen-2-ol bis(2,2,2-trifluoroacetate)] | 1.79 µM
18 | CO[C@H]1CN2CCC[C@]2(COc2nc(N3CC4CCC(C3)N4)c3cnc(-c4cccc5cccc(Cl)c45)c(F)c3n2)C1 [Example 225, 4-((1R,5S)-3,8-diazabicyclo[3.2.1]octan-3-yl)-7-(8-chloronaphthalen-1-yl)-8-fluoro-2-((2-methoxytetrahydro-1H-pyrrolizin-7a(5H)-yl)methoxy)pyrido[4,3-d]pyrimidine bis-2,2,2-trifluoroacetate] | 3.06 µM
